# Measurements taken from patent US9920030B2 (priority 2006, dated 2018).
# Read-outs that look alike come from different tables or passages of the source.
# Key:
# Type in all cases: in vivo
# [1] = tested on: Plasmopara vilicola (the causal agent of grape downy mildew); test: Test A: grape downy mildew, test suspension sprayed on grape seedlings after inoculation, visual disease rating
# Method in brief: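 Compounds dissolved in acetone (3% of final volume), suspended in 50/50 acetone/water with 250 ppm Trem 014; 200 ppm to run-off equals 500 g/ha. Seedlings inoculated, held saturated at 20 °C 24 h, then sprayed; 5 days at 20 °C, 24 h saturated, then visual rating, 0–100% control versus untreated.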
# [2] = tested on: Phytophthora infestans (the causal agent of tomato late blight); test: whole plant or invertebrate
# [3] = tested on: Phytophthora infestans (the causal agent of tomato late blight); test: whole plant or invertebrate; remark: listed apart in the source
# [4] = compounds without asterisk (application rate not given), 100 = 100% disease control, 0 = no control relative to the controls
# [5] = Plasmopara, 144 h, * tested at 40 ppm, read-out: Percent Disease Control, Test A
# [6] = Phytophthora infestans, 144 h, read-out: Percent Disease Control, Test B
# [7] = Phytophthora infestans, 96 h, read-out: Percent Disease Control, Test C
smiles,measurement,setting,value
"Cc1cc(C(F)(F)F)nn1CC(=O)N1CCC(c2nc(C3=NOC4(CCCC(C#N)C4)C3)cs2)CC1 (single isomer, unassigned) [Compound 254]","Percent Disease Control, Test A",[1]; * tested at 40 ppm,100%
same,"Percent Disease Control, Test B",[2]; * tested at 40 ppm,100%
same,"Percent Disease Control, Test C",[3]; * tested at 40 ppm,93%
Cc1ccc(C2CC(c3csc(C4CCN(C(=O)Cn5nc(C(F)(F)F)cc5C)CC4)n3)=NO2)c(C)c1 (stereo not drawn) [Compound 136],"Percent Disease Control, Test A",[1]; * tested at 40 ppm,99%
same,"Percent Disease Control, Test B",[2]; * tested at 40 ppm,100%
same,"Percent Disease Control, Test C",[3]; * tested at 40 ppm,99%
Cc1cc(C(F)(F)F)nn1CC(=O)N1CCC(c2nc(C3=NOC4(CC(=O)N(c5ccccc5)C4=O)C3)cs2)CC1 (stereo not drawn) [Compound 252],"Percent Disease Control, Test A",[1]; * tested at 40 ppm,88%
same,"Percent Disease Control, Test B",[2]; * tested at 40 ppm,91%
same,"Percent Disease Control, Test C",[3]; * tested at 40 ppm,97%
Cc1cc(C(F)(F)F)nn1CC(=O)N1CCC(c2nc(C3=NOC4C(=O)N(C)C(=O)C34)cs2)CC1 (stereo not drawn) [Compound 45],"Percent Disease Control, Test A",[1]; [4],30%
same,"Percent Disease Control, Test B",[2]; [4],26%
same,"Percent Disease Control, Test C",[3]; [4],0%
C=CN1C(=O)C2ON=C(c3csc(C4CCN(C(=O)Cn5nc(C(F)(F)F)cc5C)CC4)n3)C2C1=O (stereo not drawn) [Compound 224],"Percent Disease Control, Test A",[1]; [4],0%
same,"Percent Disease Control, Test B",[2]; [4],63%
same,"Percent Disease Control, Test C",[3]; [4],0%
COCC1(c2ccccc2)CC(c2csc(C3CCN(C(=O)Cn4nc(C(F)(F)F)cc4C)CC3)n2)=NO1 (stereo not drawn) [Compound 141],"Percent Disease Control, Test A",[1]; * tested at 40 ppm,99%
same,"Percent Disease Control, Test B",[2]; * tested at 40 ppm,100%
same,"Percent Disease Control, Test C",[3]; * tested at 40 ppm,99%
Cc1cc(C(F)(F)F)nn1CC(=O)N1CCC(c2nc(C3=NOC(n4c(=O)sc5ccc(Cl)cc54)C3)cs2)CC1 (stereo not drawn) [Compound 280],"Percent Disease Control, Test A",[1]; ** tested at l0 ppm,92%
same,"Percent Disease Control, Test B",[2]; ** tested at l0 ppm,100%
same,"Percent Disease Control, Test C",[3]; ** tested at l0 ppm,98%
CCCc1ccc(-c2csc(C3CCN(C(=O)Cn4nc(C(F)(F)F)cc4C)CC3)n2)cc1 [Compound 271],"Percent Disease Control, Test A",[1]; [4],100%
same,"Percent Disease Control, Test B",[2]; [4],100%
same,"Percent Disease Control, Test C",[3]; [4],72%
CCC1(c2ccccc2)CC(c2csc(C3CCN(C(=O)Cn4nc(C(F)(F)F)cc4C)CC3)n2)=NO1 (stereo not drawn) [Compound 105],"Percent Disease Control, Test A",[1]; * tested at 40 ppm,100%
same,"Percent Disease Control, Test B",[2]; * tested at 40 ppm,100%
same,"Percent Disease Control, Test C",[3]; * tested at 40 ppm,99%
Cc1ccccc1C1(C)CC(c2csc(C3CCN(C(=O)Cn4nc(C(F)(F)F)cc4C)CC3)n2)=NO1 (stereo not drawn) [Compound 205],"Percent Disease Control, Test A",[1]; * tested at 40 ppm,99%
same,"Percent Disease Control, Test B",[2]; * tested at 40 ppm,100%
same,"Percent Disease Control, Test C",[3]; * tested at 40 ppm,99%
Cc1cc(C(F)(F)F)nn1CC(=O)N1CCC(c2nc(C3=NOC(N4C(=O)OC(C)(C)C4=O)C3)cs2)CC1 (stereo not drawn) [Compound 223],"Percent Disease Control, Test A",[1]; [4],100%
same,"Percent Disease Control, Test B",[2]; [4],100%
same,"Percent Disease Control, Test C",[3]; [4],100%
Cc1cc(C(F)(F)F)nn1CC(=O)N1CCC(n2cc(-c3cccc(-c4ccccc4)n3)cn2)CC1 [Compound 34],"Percent Disease Control, Test A",[1]; [4],0%
same,"Percent Disease Control, Test B",[2]; [4],40%
same,"Percent Disease Control, Test C",[3]; [4],0%
Cc1cc(C(F)(F)F)nn1CC(=O)N1CCC(c2nc(-c3nc4ccccc4[nH]3)cs2)CC1 [Compound 58],"Percent Disease Control, Test A",[1]; [4],0%
same,"Percent Disease Control, Test B",[2]; [4],99%
same,"Percent Disease Control, Test C",[3]; [4],0%
"Cc1cc(C(F)(F)F)nn1CC(=O)N1CCC(c2nc(C3CC(c4ccccc4)=NO3)cs2)CC1 (stereo not drawn) [Compound 6, 4-[4-(4,5-dihydro-3-phenyl-5-isoxazolyl)-2-thiazolyl]-1-[(5-methyl-3-(trifluoromethyl)-1H-pyrazol-1-yl)acetyl]piperidine]",pest or weed control at 40 ppm,[1]; [5],95%
same,pest or weed control at 40 ppm,[2]; [6],100%
same,pest or weed control at 40 ppm,[3]; [7],99%
Cc1cc(C(F)(F)F)nn1CC(=O)N1CCC(c2nc(C3=NOC4(CCN(C(=O)OC(C)(C)C)CC4)C3)cs2)CC1 [Compound 194],"Percent Disease Control, Test A",[1]; * tested at 40 ppm,94%
same,"Percent Disease Control, Test B",[2]; * tested at 40 ppm,100%
same,"Percent Disease Control, Test C",[3]; * tested at 40 ppm,99%
Cc1cc(C(F)(F)F)nn1CC(=O)N1CCC(c2nc(-c3cc(-c4ccccc4)no3)cs2)CC1 [Compound 30],"Percent Disease Control, Test A",[1]; ** tested at l0 ppm,31%
same,"Percent Disease Control, Test B",[2]; ** tested at l0 ppm,57%
same,"Percent Disease Control, Test C",[3]; ** tested at l0 ppm,50%
Cc1cc(C(F)(F)F)nn1CC(=O)N1CCC(c2nc(C3=NOC(OC(C)(C)C)C3)cs2)CC1 (stereo not drawn) [Compound 211],"Percent Disease Control, Test A",[1]; * tested at 40 ppm,100%
same,"Percent Disease Control, Test B",[2]; * tested at 40 ppm,100%
same,"Percent Disease Control, Test C",[3]; * tested at 40 ppm,99%
Cc1cc(C(F)(F)F)nn1CC(=O)N1CCC(c2nc(-c3nnc(-c4ccccc4)o3)cs2)CC1 [Compound 40],"Percent Disease Control, Test A",[1]; [4],47%
same,"Percent Disease Control, Test B",[2]; [4],100%
same,"Percent Disease Control, Test C",[3]; [4],99%
Cc1cc(C(F)(F)F)nn1CC(=O)N1CCC(c2nc(C3=NO[C@@H](N4C(=O)c5ccccc5C4=O)C3)cs2)CC1 (racemic) [Compound 129],"Percent Disease Control, Test A",[1]; * tested at 40 ppm,99%
same,"Percent Disease Control, Test B",[2]; * tested at 40 ppm,100%
same,"Percent Disease Control, Test C",[3]; * tested at 40 ppm,99%
"Cc1cc(C(F)(F)F)nn1CC(=O)N1CCC(c2nc(C3=NOC4(COC(c5ccccc5)OC4)C3)cs2)CC1 (single isomer, unassigned) [Compound 175]","Percent Disease Control, Test A",[1]; [4],68%
same,"Percent Disease Control, Test B",[2]; [4],100%
same,"Percent Disease Control, Test C",[3]; [4],33%
"Cc1cc(C(F)(F)F)nn1CC(=O)N1CCC(c2nc(C3=NOC4(CCCC(C#N)C4)C3)cs2)CC1 (single isomer, unassigned) [Compound 253]","Percent Disease Control, Test A",[1]; * tested at 40 ppm,100%
same,"Percent Disease Control, Test B",[2]; * tested at 40 ppm,100%
same,"Percent Disease Control, Test C",[3]; * tested at 40 ppm,95%
Cc1cc(C(F)(F)F)nn1CC(=O)N1CCC(c2nc(C3=NC(c4ccccc4)CO3)cs2)CC1 (stereo not drawn) [Compound 31],"Percent Disease Control, Test A",[1]; ** tested at l0 ppm,84%
same,"Percent Disease Control, Test B",[2]; ** tested at l0 ppm,83%
same,"Percent Disease Control, Test C",[3]; ** tested at l0 ppm,60%
Cc1cc(C(F)(F)F)nn1CC(=O)N1CCC(c2nc(-c3cc(-c4ccccc4C(=O)O)on3)cs2)CC1 [Compound 210],"Percent Disease Control, Test A",[1]; [4],91%
same,"Percent Disease Control, Test B",[2]; [4],100%
same,"Percent Disease Control, Test C",[3]; [4],83%
Cc1cc(C(F)(F)F)nn1CC(=O)N1CCC(c2nc(-c3ccc(OC(F)(F)F)cc3)cs2)CC1 [Compound 269],"Percent Disease Control, Test A",[1]; [4],100%
same,"Percent Disease Control, Test B",[2]; [4],100%
same,"Percent Disease Control, Test C",[3]; [4],0%
"COc1cc(OC)c([C@H]2CC(c3csc(C4CCN(C(=O)Cn5nc(C(F)(F)F)cc5C)CC4)n3)=NO2)c(OC)c1 (racemic) [Compound 155, 1-[4-[4-[(5R)-4,5-dihydro-5-(2,4,6-trimethoxyphenyl)-3-isoxazolyl]-2-thiazolyl]-1-piperidinyl]-2-[5-methyl-3-(trifluoromethyl)-1H-pyrazol-1-yl]ethanone]",pest or weed control at 40 ppm,[1]; [5],100%
same,pest or weed control at 40 ppm,[2]; [6],100%
same,pest or weed control at 40 ppm,[3]; [7],99%
Cc1cc(C(F)(F)F)nn1CC(=O)N1CCC(c2nc(C3=NOC4(CCOCC4)C3)cs2)CC1 [Compound 173],"Percent Disease Control, Test A",[1]; * tested at 40 ppm,100%
same,"Percent Disease Control, Test B",[2]; * tested at 40 ppm,100%
same,"Percent Disease Control, Test C",[3]; * tested at 40 ppm,99%
Cc1cc(C(F)(F)F)nn1CC(=O)N1CCC(c2nc(-c3cccnc3)cs2)CC1 [Compound 124],"Percent Disease Control, Test A",[1]; [4],8%
same,"Percent Disease Control, Test B",[2]; [4],98%
same,"Percent Disease Control, Test C",[3]; [4],26%
Cc1cc(C(F)(F)F)nn1CC(=O)N1CCC(c2nc(C3=NCCN3Cc3ccccc3)cs2)CC1 [Compound 32],"Percent Disease Control, Test A",[1]; [4],0%
same,"Percent Disease Control, Test B",[2]; [4],26%
same,"Percent Disease Control, Test C",[3]; [4],0%
"Cc1cc(C(F)(F)F)nn1CC(=O)N1CCC(c2nc(C3=NO[C@@H](c4ccccc4)C3)cs2)CC1 [Compound 3, 1-[4-[4-[(5R)-4,5-dihydro-5-phenyl-3-isoxazolyl]-2-thiazolyl]-1-piperidinyl]-2-[5-methyl-3-(trifluoromethyl)-1H-pyrazol-1-yl]ethanone]",pest or weed control at 10 µg/mL,"[1]; Plasmopara, 144 h, ** tested at l0 ppm, read-out: Percent Disease Control, Test A",100%
same,pest or weed control at 10 µg/mL,[2]; [6],100%
same,pest or weed control at 10 µg/mL,[3]; [7],99%
Cc1cc(C(F)(F)F)nn1CC(=O)N1CCC(c2nc(-c3cc(-c4ccc(F)cc4F)on3)cs2)CC1 [Compound 64],"Percent Disease Control, Test A",[1]; [4],90%
same,"Percent Disease Control, Test B",[2]; [4],99%
same,"Percent Disease Control, Test C",[3]; [4],88%
Cc1cc(C(F)(F)F)nn1CC(=O)N1CCC(c2nc(C3=NOC(N(C)C(=O)c4ccccc4)C3)cs2)CC1 (stereo not drawn) [Compound 264],"Percent Disease Control, Test A",[1]; * tested at 40 ppm,99%
same,"Percent Disease Control, Test B",[2]; * tested at 40 ppm,100%
same,"Percent Disease Control, Test C",[3]; * tested at 40 ppm,88%
